Values joined by “and” are separate entries in the source; they are usually repeats but may differ in a detail not shown here. Identical values can stand only once.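 In this assay, cells in 96-well plates receive the compound at five concentrations for 48 hours. Endpoints are linearly interpolated between the surrounding concentrations. GI50 = concentration required for 50% inhibition of growth. TGI: concentration producing complete growth inhibition.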
Key:
Assay in all cases: DTP human tumour cell line panel, 48 h
[1] = test system: HT29 colon
[2] = test system: OVCAR-4 ovarian
[3] = test system: NCI/ADR-RES ovarian
[4] = test system: SN12C renal
[5] = test system: SK-OV-3 ovarian
[6] = test system: PC-3 prostate
[7] = test system: KM12 colon
[8] = test system: MDA-MB-231 breast
[9] = test system: SR leukemia
[10] = test system: MOLT-4 leukemia

Structure (SMILES)	TGI [1]	TGI [2]	TGI [3]	TGI [4]	TGI [5]	TGI [6]	TGI [7]	TGI [8]	TGI [9]	TGI [10]	GI50 [1]	GI50 [2]	GI50 [3]	GI50 [4]	GI50 [5]	GI50 [6]	GI50 [10]	GI50 [7]	GI50 [8]	GI50 [9]
O=S(=O)(c1ccccc1)N1CCN(S(=O)(=O)c2ccccc2)c2ccccc21	> 100 µM	> 100 µM	> 100 µM	> 100 µM	> 100 µM	> 100 µM	> 100 µM	> 100 µM	> 100 µM											
O=C1CN(c2cccc(Cl)c2)C(=O)CN1CCN1CC(=O)N(c2cccc(Cl)c2)CC1=O	> 100 µM	> 100 µM		> 100 µM	> 100 µM	> 100 µM	> 100 µM		> 100 µM	> 100 µM										
O=C1CCCCN1c1ccccc1C#C/C=C\C#Cc1ccccc1C(F)(F)F	2.63 µM	19.1 µM	2.48 µM	3.67 µM	> 50 µM	> 50 µM	11.4 µM	2.71 µM		6.96 µM	0.97 µM	3.6 µM	0.946 µM	1.59 µM	> 50 µM	2.32 µM	1.59 µM	1.8 µM	1.16 µM	
CCOC(=O)C1=C(C(=O)OCC)C2c3ccccc3C=CN2C(C(=O)OCC)=C(SC)S1 (stereo not drawn)	> 100 µM			> 100 µM	> 100 µM				> 100 µM	> 100 µM										
O=S(=O)(N/N=C/c1cccc(/C=N/NS(=O)(=O)c2ccccc2)c1)c1ccccc1	> 100 µM	> 100 µM		> 100 µM	> 100 µM		> 100 µM		> 100 µM	> 100 µM										
CCCCN(CCCC)C(=O)C(=O)C(C(=O)c1ccc(OC)cc1)c1ccc(OC)cc1 (stereo not drawn)	> 100 µM	> 100 µM		> 100 µM	> 100 µM		> 100 µM			> 100 µM										
COc1ccc(OC)c(N2CC(N)C2=O)c1 (stereo not drawn)	> 100 µM	> 100 µM		> 100 µM	> 100 µM		> 100 µM			> 100 µM										
COc1cc(C2CC(C)(O)Oc3cc4c(cc32)OCO4)cc(OC)c1OC (stereo not drawn)	> 100 µM	> 100 µM		> 100 µM			0.595 µM	0.851 µM	> 100 µM	> 100 µM										
Cc1ccc(Oc2ccc(C)cc2N)cc1	> 100 µM	> 100 µM		> 100 µM	> 100 µM		> 100 µM		> 100 µM	> 100 µM										
CC(=O)NNc1nc(C)c(C(=O)/C=C/c2ccc(NC(C)=O)cc2)s1	> 100 µM			> 100 µM	> 100 µM		> 100 µM			> 100 µM										
CC(=O)O/N=C(/C)c1ccccc1O	> 100 µM	> 100 µM		> 100 µM	> 100 µM		> 100 µM			> 100 µM										
O=C(Nc1ccccc1-c1nn(C(=S)Nc2ccccc2)c(=S)n(C(=S)Nc2ccccc2)c1=O)C(F)(F)F	> 78.9 µM	> 31.6 µM		> 100 µM	> 100 µM		52 µM			> 77.1 µM										
COC(=O)C(CCCN1C(=O)c2ccccc2C1=O)C(=O)OC	> 100 µM	> 100 µM		> 100 µM	> 100 µM		> 100 µM			> 100 µM										
CC(C)(C)c1cc2c(O)c3cccc4c(=O)c5cccc6c5-c(c34)c2c(c1)c6=O	> 100 µM	> 100 µM		> 100 µM	> 100 µM		> 100 µM		30.4 µM	> 100 µM										
CC1(C)OC1COc1c2occc2cc2ccc(=O)oc12 (stereo not drawn)	> 100 µM	> 100 µM	> 100 µM	> 100 µM		> 100 µM	> 100 µM	> 100 µM		> 100 µM										
COc1cccc(-c2nc(-c3ccc(NC(=O)OC(C)C)cc3)[nH]c2-c2ccnc(Br)c2)c1	> 100 µM	> 100 µM	> 100 µM	> 100 µM	> 100 µM	> 100 µM	> 100 µM	> 100 µM		56 µM	2.37 µM	3.09 µM	2.85 µM	2.94 µM	3.85 µM	2.62 µM	1.64 µM	2.41 µM	3.85 µM	
Cc1ccc(/C=C/C(=O)CCN(C)C)cc1	33.4 µM	30.4 µM		32.1 µM	> 100 µM		14 µM		62.7 µM	51.7 µM										
CCCCCCCCCCCCC(O)c1ccc(C#CCCCCCCCCCO)o1 (stereo not drawn)	> 100 µM	> 100 µM	34.3 µM	33.2 µM	62.2 µM	59.6 µM	39.9 µM	36.2 µM		26.7 µM	69.9 µM	45.1 µM	18.3 µM	18.7 µM	25.8 µM	25.2 µM	4.69 µM	20.5 µM	20.4 µM	
Oc1[nH]c2ccccc2c1N=Nc1nc(-c2ccc(Br)cc2)cs1	32.9 µM	38.9 µM	44.1 µM	83.2 µM	66.3 µM	> 100 µM	> 100 µM	62.5 µM		> 100 µM										
C/C(=N/Nc1ccc([N+](=O)[O-])cc1[N+](=O)[O-])C(CC(C(=O)NCc1ccccc1)/C(C)=N\Nc1ccc([N+](=O)[O-])cc1[N+](=O)[O-])C(=O)NCc1ccccc1 (stereo not drawn)	18.5 µM	5.59 µM		15.1 µM	29.1 µM		15 µM		35.7 µM											
Cc1cccc(C)c1NC(=O)CCCC(=O)C1/C(=N/NC(=O)CC#N)CCC/C1=N\NC(=O)CC#N (stereo not drawn)	> 100 µM	> 100 µM		> 100 µM	> 100 µM		> 100 µM		> 100 µM	> 100 µM										
CCOP(=O)(OCC)C(F)(F)c1ccc(CC(NC(=O)OC(C)(C)C)C(=O)O)cc1 (stereo not drawn)	> 10 µM	> 10 µM	> 10 µM	> 10 µM	> 10 µM	> 10 µM	> 10 µM	> 10 µM		> 10 µM										

Structure (SMILES)	TGI [1]	TGI [2]	TGI [3]	TGI [4]	TGI [5]	TGI [6]	TGI [7]	TGI [8]	TGI [9]	TGI [10]	GI50 [1]	GI50 [2]	GI50 [3]	GI50 [4]	GI50 [5]	GI50 [6]	GI50 [10]	GI50 [7]	GI50 [8]	GI50 [9]
NC(=O)C(=Cn1c(=S)[nH]c2ccc([N+](=O)[O-])cc21)C(N)=O	> 100 µM	> 100 µM	> 100 µM	> 100 µM	> 100 µM		> 100 µM	> 100 µM		> 100 µM										
COc1ccc(C)cc1-c1cc(Sc2ccccc2)c(-c2cc(C)ccc2OC)o1	> 31.6 µM	> 31.6 µM		> 31.6 µM	> 31.6 µM		> 31.6 µM			> 31.6 µM										
CC(C)=CCC(O)C1=CC(=O)c2c(O)ccc(O)c2C1=O (stereo not drawn)	5.17 µM	4.84 µM		1.45 µM	24 µM	5.17 µM	16.9 µM	4.71 µM		0.135 µM										
O=C(Nc1ccc(Oc2ccc(Nc3nc4ccccc4s3)cc2)cc1)Nc1ccc(Cl)c(C(F)(F)F)c1	3.23 µM	3.16 µM	4.11 µM	3.03 µM	4.42 µM	2.79 µM	3.34 µM	2.86 µM	5.81 µM		1.72 µM	1.31 µM	1.8 µM	1.42 µM	1.86 µM	1.07 µM		1.51 µM	1.37 µM	1.32 µM
COc1nc(NC2OC(COC(C)=O)C(OC(C)=O)C(OC(C)=O)C2OC(C)=O)c2c(OC(C)=O)cc(=O)oc2n1 (stereo not drawn)	> 100 µM	> 100 µM		> 100 µM	> 100 µM		> 100 µM			> 100 µM										
CCc1c(OC(C)=O)c2c(NC3OCC(OC(C)=O)C(OC(C)=O)C3OC(C)=O)nc(SC)nc2oc1=O (stereo not drawn)	> 100 µM	> 100 µM		> 100 µM	> 100 µM		> 100 µM			> 100 µM										
CCN1C(=O)N(c2ccccc2)C2NC(=S)N(/N=C/C=C/c3ccccc3OC)C21 (stereo not drawn)	> 100 µM	> 67 µM	> 72.4 µM	> 42.2 µM		> 89.3 µM	> 36.1 µM	5.13 µM	> 48.5 µM	> 100 µM	0.111 µM	0.263 µM	0.0782 µM	0.139 µM		0.111 µM	0.128 µM	0.101 µM	0.0921 µM	0.086 µM
C/C(CCn1[nH]c(=O)ccc1=O)=N\NC(=O)C(=O)NN	> 100 µM	> 100 µM		> 100 µM	> 100 µM		> 100 µM			> 100 µM										
CC(=O)N(C(=O)CC(=O)N1N=C(c2ccccc2)C(N=Nc2ccccc2[N+](=O)[O-])C1=O)c1ccc(Cl)cc1 (stereo not drawn)	> 10 µM	> 10 µM	> 10 µM	> 10 µM	> 10 µM	> 10 µM	> 10 µM	> 10 µM		> 10 µM										
Cc1ccc(/C=C/C(=O)c2cccc3ccccc23)cc1	43.4 µM	28 µM		27.4 µM	62.5 µM		27.9 µM		78.2 µM	67.6 µM										
O=C1C=CC(=O)c2nc3c(cc21)CCC3	> 100 µM	29.7 µM		40.3 µM			> 100 µM		27 µM	33.7 µM										
CC(=O)OCCOCNC(=S)N/N=C(\C)c1cnccn1	> 100 µM	> 100 µM		> 100 µM	> 100 µM		> 100 µM		> 100 µM	> 100 µM										
COC(=O)CC(c1ccccc1)C1(c2ccccc2)SCCS1 (stereo not drawn)	> 290 µM			> 290 µM	> 290 µM		> 290 µM		> 290 µM	> 290 µM										
Cc1ccc(-n2c3nc(=O)[nH]c(=O)c-3cc3cc([N+](=O)[O-])ccc32)cc1	37.2 µM	98.8 µM	34.4 µM	56.5 µM	> 100 µM	36.6 µM	16.1 µM	44.2 µM		> 100 µM	12 µM	24.1 µM	10.7 µM	20.6 µM	37.1 µM	12.2 µM	6.61 µM	3.79 µM	17.8 µM	
O=C(Oc1ccc(Cl)cc1)c1ccccc1Nc1ccnc(C(F)(F)F)c1			49.5 µM	8.72 µM		63.2 µM	23.1 µM	7.04 µM	> 100 µM	> 100 µM			16.2 µM	2.95 µM		17 µM	> 100 µM	8.94 µM	1.78 µM	3.79 µM
CC(C)(C)c1cc2ccc(C(N)=O)cc2c(=O)[nH]1	> 100 µM	> 100 µM		> 100 µM	> 100 µM		> 100 µM		> 100 µM	> 100 µM										
CN(C)CCn1c2c3ccccc3ccc2c2oc(=O)c3ccccc3c21	16.6 µM	28.1 µM			7.35 µM		37 µM			7.25 µM										
CN(C)CC1CC/C(=C\c2ccc(O)cc2)C1=O (stereo not drawn)	11.5 µM	18.5 µM	21.5 µM	14 µM	32.3 µM	20.2 µM	16.6 µM	9.22 µM		5.29 µM										
NC(=O)c1ccccc1NC(=O)C(=O)C(C(=O)c1ccc(Cl)c(Cl)c1)C1OC(=O)c2ccccc21 (stereo not drawn)	> 100 µM	> 100 µM		> 100 µM			> 100 µM		> 100 µM	> 100 µM										
Cc1cc2c(C)[nH]nc2c(C(=O)O)c1C	> 100 µM	> 100 µM		> 100 µM			> 100 µM		> 100 µM	> 100 µM										
CCCCCCCCCCCCCCCC[N+](C)(C)Cc1ccccc1	2.36 µM	4.55 µM	45.1 µM and 42 µM		3.7 µM	2 µM	2.42 µM	3.32 µM			1.01 µM	1.59 µM	14.4 µM and 12 µM		1.68 µM	0.537 µM		1.13 µM	1.38 µM	
COc1ccc2nc(NC(=O)CSc3nnc4n3S(=O)(=O)c3ccccc3N4c3ccccc3)sc2c1	> 100 µM	> 100 µM	> 100 µM		> 100 µM	> 100 µM	> 100 µM	> 100 µM	> 100 µM	> 100 µM	> 100 µM	> 100 µM	> 100 µM		> 100 µM	> 100 µM	> 100 µM	> 100 µM	23.7 µM	47.4 µM

— PubChem BioAssay (NCI)
